In patent US7662971B2, “Inhibitors of fatty acid amide hydrolase” (The Scripps Research Institute, priority 2002, dated 2010):

tested on: not given; assay: not given; conditions: not given

Compound	melting point [°C]
CCCCCCCCCCCCCCCCCC(=O)c1ncc(-c2ccccn2)o1 [Compound 182, 1-(5-(Pyridin-2-yl)oxazol-2-yl)octadecan-1-one]	86 to 87
CCCCCCCCCCCCCCCC(=O)c1ncc(-c2ccccn2)o1 [Compound 183, 1-(5-(Pyridin-2-yl)oxazol-2-yl)hexadecan-1-one]	78 to 80
CCCCCCCCCCCCCC(=O)c1ncc(-c2ccccn2)o1 [Compound 184, 1-(5-(Pyridin-2-yl)oxazol-2-yl)tetradecan-1-one]	79 to 80
CCCCCCCCCCCC(=O)c1ncc(-c2ccccn2)o1 [Compound 185, 1-(5-(Pyridin-2-yl)oxazol-2-yl)dodecan-1-one]	73 to 74
CCCCCCCCCC(=O)c1ncc(-c2ccccn2)o1 [Compound 187, 1-(5-(Pyridin-2-yl)oxazol-2-yl)decan-1-one]	56 to 57
CCCCCCCCC(=O)c1ncc(-c2ccccn2)o1 [Compound 188, 1-(5-(Pyridin-2-yl)oxazol-2-yl)nonan-1-one]	56 to 57
CCCCCCCC(=O)c1ncc(-c2ccccn2)o1 [Compound 189, 1-(5-(Pyridin-2-yl)oxazol-2-yl)octan-1-one]	56
CCCCCCC(=O)c1ncc(-c2ccccn2)o1 [Compound 190, 1-(5-(Pyridin-2-yl)oxazol-2-yl)heptan-1-one]	52
CCCCCC(=O)c1ncc(-c2ccccn2)o1 [Compound 191, 1-(5-(Pyridin-2-yl)oxazol-2-yl)hexan-1-one]	49 to 50.5
CCCCC(=O)c1ncc(-c2ccccn2)o1 [Compound 192, 1-(5-(pyridin-2-yl)oxazol-2-yl)pentan-1-one]	36 to 37

The next lines start with the values.

melting point [°C]	Compound
54 to 55	CCCC(=O)c1ncc(-c2ccccn2)o1 [Compound 193, 1-[5-(Pyridin-2-yl)oxazol-2-yl]butan-1-one]
65 to 67	CCC(=O)c1ncc(-c2ccccn2)o1 [Compound 194, 1-[5-(Pyridin-2-yl)oxazol-2-yl]propan-1-one]
49 to 51	O=C(CCCCc1ccccc1)c1ncc(-c2ccccn2)o1 [Compound 198, 1-Oxo-1-[5-(2-pyridyl)oxazol-2-yl]-5-phenylpentane]
43.5 to 45.5	O=C(CCCCCc1ccccc1)c1ncc(-c2ccccn2)o1 [Compound 199, 1-Oxo-1-[5-(2-pyridyl)oxazol-2-yl]-6-phenylhexane]
72 to 73	O=C(CCCCCCCc1ccccc1)c1ncc(-c2ccccn2)o1 [Compound 201, 1-Oxo-1-[5-(2-pyridyl)oxazol-2-yl]-8-phenyloctane]
55 to 57	C=CCCCCCCCC(=O)c1ncc(-c2ccccn2)o1 [Compound 203, 1-Oxo-1-[5-(2-pyridyl)oxazol-2-yl]-9-decene]
64.5 to 65.5	C#CCCCCCCCC(=O)c1ncc(-c2ccccn2)o1 [Compound 204, 1-Oxo-1-[5-(2-pyridyl)oxazol-2-yl]-9-decyne]
41	CCCCCCCCC#CCCCCCCCC(=O)c1ncc(-c2ccccn2)o1 [Compound 205, 1-Oxo-1-[5-(2-pyridyl)oxazol-2-yl]-9-octadecyne]

tested on: mice; assay: tail withdrawal / tail immersion test (thermal pain); format: in vivo; conditions: 10 mg/kg, i.p., 60 minutes following injection, p<0.001
Description: (§1) FIG. 11 illustrates a bar graph showing the reduced thermal pain responses 60 minutes following the injection of OL-135 (10 mg/kg, i.p.). This test is the tail withdrawal test and there is no effect with the vehicle while there is marked delay after administration of the OL-135. [p<0.001; N=12 mice per group; results shown as means ±S.E.]
(§2) The mice received an i.p. injection of vehicle or SR 141716A (3 mg/kg); 10 minutes later all subjects were given OL-135 (10 mg/kg, i.p.) and then evaluated in the tail immersion test one hour after the second injection. (p<0.001 for OL-135-treated mice that were pretreated with vehicle versus either their pre-injection baseline latencies or OL-135 treated mice that were pretreated with SR 141716A.) Results are shown as means ±S. E. N=6 mice/group.

Compound	thermal pain response, tail withdrawal test
O=C(CCCCCCc1ccccc1)c1ncc(-c2ccccn2)o1 [OL-135]	marked delay

same assay, conditions: SR 141716A 3 mg/kg i.p. 10 minutes before OL-135 10 mg/kg i.p., one hour after second injection

Compound	effect on OL-135 analgesia, tail immersion test
Cc1c(C(=O)NN2CCCCC2)nn(-c2ccc(Cl)cc2Cl)c1-c1ccc(Cl)cc1 [SR 141716A, reference compound]	blocking the analgesic effects of OL-135

tested on: mice; assay: hot plate test (thermal pain); format: in vivo; conditions: 10 mg/kg, i.p., 60 minutes following injection, p<0.01
Description: as §1, with “12” for “11”, “hot plate” for “tail withdrawal”, “and” for “while”, “some” for “marked”, “[p<0.01;” for “[p<0.001;”
as §2, with “hot plate” for “tail immersion”, “[p<0.001” for “(p<0.001”, “141716A.” for “141716A.)”, “mice/group.]” for “mice/group.”

Compound	thermal pain response, hot plate test
O=C(CCCCCCc1ccccc1)c1ncc(-c2ccccn2)o1 [OL-135]	some delay

same assay, conditions: SR 141716A 3 mg/kg i.p. 10 minutes before OL-135 10 mg/kg i.p., one hour after second injection

Compound	effect on OL-135 analgesia, hot plate test
Cc1c(C(=O)NN2CCCCC2)nn(-c2ccc(Cl)cc2Cl)c1-c1ccc(Cl)cc1 [SR 141716A, reference compound]	blocking the analgesic effects of OL-135

target: T1, FAAH (Rattus norvegicus, UniProt P97612); assay: FAAH enzyme inhibition, breakdown of 14C-oleamide to oleic acid; format: biochemical; conditions: 5-(2-pyridyl)-substituted oxazole head group, FIG. 4
T1 construct: using a solubilized liver plasma membrane extract containing FAAH; from tissue; host or cells: liver plasma membrane extract (solubilized)
T1 sequence (P97612 1-579): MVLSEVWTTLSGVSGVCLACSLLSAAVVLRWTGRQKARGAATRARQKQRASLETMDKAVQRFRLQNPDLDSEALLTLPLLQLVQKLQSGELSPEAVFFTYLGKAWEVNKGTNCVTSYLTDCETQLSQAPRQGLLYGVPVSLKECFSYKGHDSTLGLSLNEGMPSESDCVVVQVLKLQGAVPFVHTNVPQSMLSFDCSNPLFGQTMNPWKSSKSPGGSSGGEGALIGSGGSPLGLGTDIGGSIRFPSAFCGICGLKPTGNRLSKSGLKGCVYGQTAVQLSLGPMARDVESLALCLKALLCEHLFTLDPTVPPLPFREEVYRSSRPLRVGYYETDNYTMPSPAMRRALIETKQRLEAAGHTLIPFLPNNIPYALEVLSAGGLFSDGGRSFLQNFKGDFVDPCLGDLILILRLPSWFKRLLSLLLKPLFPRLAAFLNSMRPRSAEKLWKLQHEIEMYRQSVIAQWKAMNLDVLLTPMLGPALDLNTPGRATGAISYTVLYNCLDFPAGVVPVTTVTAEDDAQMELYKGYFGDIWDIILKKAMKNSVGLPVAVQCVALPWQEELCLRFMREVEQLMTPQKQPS
Description: All enzyme assays were performed at 20-23° C. using a solubilized liver plasma membrane extract containing FAAH in a reaction buffer of 125 mM Tris, 1 mM EDTA, 0.2% glycerol, 0.02% Triton X-100, 0.4 mM HEPES, pH 9.0 buffer (M. P. Patricelli, et al., (1998) Bioorg. Med. Chem. Lett. 8, 613-618; and J. E. Patterson, et al., (1996) J. Am. Chem. Soc. 118, 5938-5945). The initial rates of hydrolysis were monitored by following the breakdown of ^14C-oleamide to oleic acid as previously described (B. F. Cravatt, et al., (1995) Science 268, 1506-1509; and M. P. Patricelli, et al., (1998) Bioorg. Med. Chem. Lett. 8, 613-618). The inhibition was reversible, non time-dependent and linear least squares fits were used for all reaction progress curves and R^2 values were consistently >0.97. IC50 values were determined from the inhibition observed at 3-5 different inhibitor concentrations (from three or more trials at each inhibitor concentration) using the formula IC50=[I]/[(K0/Ki)−1], where K0 is the control reaction rate without inhibitor and Ki is the rate with inhibitor at concentration [I] (K. Conde-Frieboes, et al., (1996) J. Am. Chem. Soc. 118, 5519-5525). Ki values were determined by the Dixon method (x-intercepts of weighted linear fits of [I] versus 1/rate plots at constant substrate concentration, which were converted to Ki values using the formula Ki=−xint/[1+[S]/Km]).

Compound	difference in Ki between compounds 185 and 200
CCCCCCCCCCCC(=O)c1ncc(-c2ccccn2)o1 [Compound 185, 1-(5-(Pyridin-2-yl)oxazol-2-yl)dodecan-1-one]	factor of two
O=C(CCCCCCc1ccccc1)c1ncc(-c2ccccn2)o1 [Compound 200, 1-Oxo-1-[5-(2-pyridyl)oxazol-2-yl]-7-phenylheptane]	factor of two
